Assays:
MDA-MB 231 cells [1] = assay: FACS analysis of CD44high/CD24low CSC-like subpopulation in Basal/metastatic model; assay type: cell-based, human; conditions: bisindolylmaleimide-I 4 μM
Procedure: Cells from each well/flask were harvested by means of trypsin treatment followed by two washes with PBS. Washed cells then re-suspended in an antibody cocktail consisting anti-CD44-APC, anti-CD24-PE antibodies (details in Table 5) and Hoechst 33258 dye (final dilution of 1:1000) (Invitrogen, Carlsbad, Calif.) in 1% FCS-PBS solution. Cells re-suspended in antibody cocktail were incubated for 20 minutes at 4° C. Cells were next washed twice with PBS and re-suspended in 1% FCS-PBS solution (volume based on cell number) and kept on ice until analyzed by FACS. Forward scatter (FSC) and side scatter parameters were selected with FITC fluorochrome excited by 488 nm argonion laser, PE fluorochrome excited by 488 nm and Hoechst fluorochrome excited by 350 nm helium-cadmium UV laser.
Flow Cytometry data was produced using either BD FACS LSR Flow Cytometer (Becton Dickinson Biosciences) or BD FACS Aria™ II Flow Cytometer (Becton Dickinson Biosciences) and analyzed using the data acquisition software CellQuest Pro (Becton Dickinson Biosciences) and FlowJo (Tree Star Inc., Ashland, Oreg.) software at the MCRF facility, JCSMR, ANU, Canberra, Australia. Single colour controls were used to set compensation parameters. Isotype controls were used for all corresponding primary antibodies in each experiment.
(§1) The adherent human mammary adenocarcinoma MCF-7 and MDA-MB-231 cells were cultured in low glucose DMEM (Gibco) and both supplemented with 10% FCS, 2 mM L-glutamine and 0.1% PSN antibiotics. Cells were stimulated with 0.65 ng/ml of phorbol 12-myristate 13-acetate (PMA) (Sigma-Aldrich) or 20 ng/ml of TGF-β (R&D systems) for the times indicated. For Bisindolylmaleimide-I (Calbiochem) or PKC-θ peptide inhibitor (Calbiochem) studies, cells were pre-treated with 1 μM or 30 μM of inhibitor respectively for 1 h prior to stimulation in MCF-7 cells. In case of MDA-MB-231, cells were treated with 4 μM or 30 μM Bisindolylmaleimide-I or PKC-θ peptide inhibitor respectively.
To separate CSC from non-CSC (NCSC), florescence activated cell sorting (FACS) was performed on single-cell suspensions that were stained with anti-CD44-APC (559942, BD Biosciences) and anti-CD24-PE antibodies (555428, BD Biosciences) along with Hoechst 33258 to monitor cell viability. As used throughout this work, CSC are defined by minority CD44^high/CD24^low, whereas NCSC are defined by rest of the cell populations.

MDA-MB 231 cells [2] = assay: Phase contrast microscopy of EMT/MET in Basal/metastatic model; assay type: cell-based, human; conditions: Bisindolylmaleimide 4 μM
Procedure: Phase contrast microscopy was utilized for EMT and wound healing assays under 10× or 20× magnification of Olympus Fluorescence 1X71 microscope. Images were captured and analyzed as described above except that wound healing assay pictures were also analyzed by Image J software (Free software in Public domain developed by NIH).
as §1
phase contrast microscopy was performed where cells were viewed at ×4 magnification (wound healing assay) or ×10 magnification (EMT) using an Olympus fluorescence IX71 microscope (Olympus) and images were captured using DPController software (2002 Olympus Optical Co. LTD) and analyzed using Photoshop CS3 (Adobe Systems Inc.). Scans were taken with a 10 μm scale bar.

[3] = listed as Broad spectrum PKC pathway inhibitor

CN(C)CCCn1cc(C2=C(c3c[nH]c4ccccc34)C(=O)NC2=O)c2ccccc21 [bisindolylmaleimide-I]
CD44 high CD24 low-CSC-like subpopulation by FACS (MDA-MB 231 cells [1]): inhibits CD44 high CD24 low-CSC-like subpopulation
CD44 high CD24 low-CSC-like subpopulation by FACS (MDA-MB 231 cells [1]; [3]): inhibition of EMT and CSC formation
EMT (morphology) (MDA-MB 231 cells [2]): inhibits EMT
EMT (morphology) (MDA-MB 231 cells [2]; [3]): inhibition of EMT and CSC formation
